Key:
hNET = hNET (Homo sapiens, UniProt P23975); experiment: fluorescence-based norepinephrine reuptake inhibition assay (Tsuruda et al. 2010; data indicated by an asterisk); format: cell-based; design: expressed in transfected cells; host or cells: HEK-293; details: norepinephrine reuptake inhibition, fluorescence-based assay (values with asterisk); read-out: NET pIC50 (converted)
hSERT = hSERT (Homo sapiens, UniProt P31645); experiment: fluorescence-based serotonin reuptake inhibition assay (Tsuruda et al. 2010; data indicated by an asterisk); format: cell-based; design: expressed in transfected cells; host or cells: HEK-293; details: fluorescence-based assay (values with asterisk), read-out: SERT pIC50 (converted)
Sequence of hSERT (P31645 whole entry): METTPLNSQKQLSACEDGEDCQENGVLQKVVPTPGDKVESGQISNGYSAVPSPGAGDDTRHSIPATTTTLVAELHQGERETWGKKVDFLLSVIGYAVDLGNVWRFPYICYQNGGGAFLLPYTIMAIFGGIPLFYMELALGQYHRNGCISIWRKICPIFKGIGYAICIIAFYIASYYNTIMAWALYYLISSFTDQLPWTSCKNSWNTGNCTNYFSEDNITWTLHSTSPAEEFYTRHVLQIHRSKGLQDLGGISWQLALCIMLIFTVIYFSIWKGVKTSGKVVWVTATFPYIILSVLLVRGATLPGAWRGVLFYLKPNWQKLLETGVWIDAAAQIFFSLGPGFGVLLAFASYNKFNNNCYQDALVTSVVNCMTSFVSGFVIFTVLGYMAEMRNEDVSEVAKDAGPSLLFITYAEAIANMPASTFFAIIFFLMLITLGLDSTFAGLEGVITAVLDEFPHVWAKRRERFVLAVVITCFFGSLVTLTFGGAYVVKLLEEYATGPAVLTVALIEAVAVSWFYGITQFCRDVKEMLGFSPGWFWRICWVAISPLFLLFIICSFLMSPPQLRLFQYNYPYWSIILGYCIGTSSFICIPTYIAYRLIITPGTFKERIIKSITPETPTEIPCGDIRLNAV

Sequence of hNET (P23975 whole entry): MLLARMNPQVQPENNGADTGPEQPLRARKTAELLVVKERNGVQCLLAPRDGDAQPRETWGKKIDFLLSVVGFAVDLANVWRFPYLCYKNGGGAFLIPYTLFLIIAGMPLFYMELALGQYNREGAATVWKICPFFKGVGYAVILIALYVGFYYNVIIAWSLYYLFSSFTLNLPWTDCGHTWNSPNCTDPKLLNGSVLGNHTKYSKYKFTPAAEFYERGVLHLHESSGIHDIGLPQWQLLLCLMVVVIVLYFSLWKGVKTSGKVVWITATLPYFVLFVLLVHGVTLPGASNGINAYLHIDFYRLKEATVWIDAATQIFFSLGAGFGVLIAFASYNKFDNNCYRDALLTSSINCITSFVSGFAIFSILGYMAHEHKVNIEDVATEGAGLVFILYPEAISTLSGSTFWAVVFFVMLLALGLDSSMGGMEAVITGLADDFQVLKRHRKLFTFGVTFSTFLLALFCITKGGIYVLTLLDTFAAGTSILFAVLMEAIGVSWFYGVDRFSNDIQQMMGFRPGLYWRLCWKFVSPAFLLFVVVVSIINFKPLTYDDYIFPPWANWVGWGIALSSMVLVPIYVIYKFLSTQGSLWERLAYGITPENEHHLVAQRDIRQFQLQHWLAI

Structure (SMILES) | IC50 (hNET) [nM] | IC50 (hSERT) [nM]
COc1cc(Cl)ccc1O[C@H](C(C)C)[C@@H]1CCNC1 [Example 6-48, (R)-3-[(R)-1-(4-Chloro-2-methoxyphenoxy)-2-methylpropyl]pyrrolidine] | ≤ 100 | ≤ 10
CC(C)[C@@H](Oc1ccc(Cl)c(F)c1)[C@H]1CCNC1 [Example 6-57, (S)-3-[(R)-1-(4-Chloro-3-fluorophenoxy)-2-methylpropyl]pyrrolidine] | ≤ 100 | ≤ 10
CC(C)[C@@H](Oc1ccc(Cl)c(F)c1)[C@@H]1CCNC1 [Example 6-58, (R)-3-[(R)-1-(4-Chloro-3-fluorophenoxy)-2-methylpropyl]pyrrolidine] | ≤ 100 | ≤ 10
CC(C)[C@H](Oc1cc(F)cc(Cl)c1)[C@H]1CCNC1 [Example 6-59, (S)-3-[(S)-1-(3-Chloro-5-fluorophenoxy)-2-methylpropyl]pyrrolidine] | ≤ 10 | ≤ 100
CC(C)[C@@H](Oc1cc(F)cc(Cl)c1)[C@H]1CCNC1 [Example 6-60, (S)-3-[(R)-1-(3-Chloro-5-fluorophenoxy)-2-methylpropyl]pyrrolidine] | ≤ 10 | ≤ 10
CC(C)[C@@H](Oc1cc(F)cc(Cl)c1)[C@@H]1CCNC1 [Example 6-61, (R)-3-[(R)-1-(3-Chloro-5-fluorophenoxy)-2-methylpropyl]pyrrolidine] | ≤ 100 | ≤ 100
CC(C)[C@@H](Oc1ccc(Cl)c(Cl)c1)[C@H]1CCNC1 [Example 6-63, (S)-3-[(R)-1-(3,4-Dichlorophenoxy)-2-methylpropyl]pyrrolidine] | ≤ 100 | ≤ 10
CC(C)[C@@H](Oc1ccc(Cl)c(Cl)c1)[C@@H]1CCNC1 [Example 6-64, (R)-3-[(R)-1-(3,4-Dichlorophenoxy)-2-methylpropyl]pyrrolidine] | ≤ 100 | ≤ 10
CC(C)[C@H](Oc1ccc(Cl)c(Cl)c1)[C@@H]1CCNC1 [Example 6-65, (R)-3-[(S)-1-(3,4-Dichlorophenoxy)-2-methylpropyl]pyrrolidine] | ≤ 100 | ≤ 10
CC(C)[C@H](Oc1cc(Cl)cc(Cl)c1)[C@@H]1CCNC1 [Example 6-69, (R)-3-[(S)-1-(3,5-Dichlorophenoxy)-2-methylpropyl]pyrrolidine] | ≤ 100 | ≤ 100
Cc1cc(O[C@H](C(C)C)[C@H]2CCNC2)ccc1Cl [Example 6-71, (S)-3-[(R)-1-(4-Chloro-3-methylphenoxy)-2-methylpropyl]pyrrolidine] | ≤ 100 | ≤ 10
CC(C)C[C@H](Oc1cccc(C(F)(F)F)c1F)[C@H]1CCNC1 [Example 10-21, (S)-3-[(S)-1-(2-Fluoro-3-trifluoromethylphenoxy)-3-methylbutyl]pyrrolidine] | ≤ 10 | ≤ 10
CC(C)C[C@@H](Oc1cccc(Cl)c1C(F)(F)F)[C@H]1CCNC1 [Example 10-34, (S)-3-[(R)-1-(3-Chloro-2-trifluoromethylphenoxy)-3-methylbutyl]pyrrolidine] | ≤ 100 | ≤ 10
CC(C)C[C@@H](Oc1ccc(Cl)cc1F)[C@H]1CCNC1 [Example 10-40, (S)-3-[(R)-1-(4-Chloro-2-fluorophenoxy)-3-methylbutyl]pyrrolidine] | ≤ 10 | ≤ 100
CC(C)C[C@H](Oc1cc(Cl)ccc1Cl)[C@H]1CCNC1 [Example 10-51, (S)-3-[(S)-1-(2,5-Dichlorophenoxy)-3-methylbutyl]pyrrolidine] | ≤ 10 | ≤ 10
CC(C)C[C@H](Oc1c(F)ccc(Cl)c1F)[C@H]1CCNC1 [Example 10-60, (S)-3-[(S)-1-(3-Chloro-2,6-difluorophenoxy)-3-methylbutyl]pyrrolidine] | ≤ 10 | ≤ 10

Structure (SMILES) | IC50 (hNET) [nM] | IC50 (hSERT) [nM]
CC(C)C[C@H](Oc1c(F)ccc(F)c1Cl)[C@H]1CCNC1 [Example 10-63, (S)-3-[(S)-1-(2-Chloro-3,6-difluorophenoxy)-3-methylbutyl]pyrrolidine] | ≤ 10 | ≤ 10
CC(C)C[C@H](Oc1c(F)ccc(Cl)c1Cl)[C@H]1CCNC1 [Example 10-65, (S)-3-[(S)-1-(2,3-Dichloro-6-fluorophenoxy)-3-methylbutyl]pyrrolidine] | ≤ 10 | ≤ 10
CC(C)C[C@H](Oc1c(F)cc(Cl)cc1F)[C@H]1CCNC1 [Example 10-67, (S)-3-[(S)-1-(4-Chloro-2,6-difluorophenoxy)-3-methylbutyl]pyrrolidine] | ≤ 10 | ≤ 10
CC(C)C[C@@H](Oc1ccc(Cl)c(F)c1)[C@H]1CCNC1 [Example 10-71, (S)-3-[(R)-1-(4-Chloro-3-fluorophenoxy)-3-methylbutyl]pyrrolidine] | ≤ 10 | ≤ 10
CC(C)C[C@H](Oc1ccc(Cl)c(F)c1)[C@H]1CCNC1 [Example 10-72, (S)-3-[(S)-1-(4-Chloro-3-fluorophenoxy)-3-methylbutyl]pyrrolidine] | ≤ 10 | ≤ 10
CC(C)C[C@H](Oc1ccc(Cl)c(Cl)c1)[C@H]1CCNC1 [Example 10-74, (S)-3-[(S)-1-(3,4-Dichlorophenoxy)-3-methylbutyl]pyrrolidine] | ≤ 10 | ≤ 10
Cc1cc(O[C@@H](CC(C)C)[C@H]2CCNC2)ccc1Cl [Example 10-75, (S)-3-[(S)-1-(4-Chloro-3-methylphenoxy)-3-methylbutyl]pyrrolidine] | ≤ 10 | ≤ 10
Cc1cc(O[C@H](CC(C)C)[C@H]2CCNC2)ccc1Cl [Example 10-76, (S)-3-[(R)-1-(4-Chloro-3-methylphenoxy)-3-methylbutyl]pyrrolidine] | ≤ 100 | ≤ 10
CC(C)C[C@@H](Oc1cc(F)cc(Cl)c1)[C@H]1CCNC1 [Example 10-83, (S)-3-[(R)-1-(3-Chloro-5-fluorophenoxy)-3-methylbutyl]pyrrolidine] | ≤ 10 | ≤ 100
CC(C)C[C@H](Oc1c(Cl)c(F)cc(F)c1Cl)[C@H]1CCNC1 [Example 10-85, (S)-3-[(S)-1-(2,6-Dichloro-3,5-difluorophenoxy)-3-methylbutyl]pyrrolidine] | ≤ 10 | ≤ 10
CCC(CC)[C@@H](Oc1cccc(Cl)c1Cl)[C@H]1CCNC1 [Example 11, (S)-3-[(R)-1-(2,3-Dichlorophenoxy)-2-ethylbutyl]pyrrolidine] | ≤ 10 | ≤ 10
CCC(CC)[C@H](Oc1cccc(Cl)c1Cl)[C@H]1CCNC1 [Example 12-1, (S)-3-[(S)-1-(2,3-Dichlorophenoxy)-2-ethylbutyl]pyrrolidine] | ≤ 10 | ≤ 10
CC(C)[C@H](Oc1cccc2ccccc12)[C@@H]1CCNC1 [Example 14-4, (R)-3-[(S)-2-Methyl-1-(naphthalen-1-yloxy)propyl]pyrrolidine] | ≤ 100 | ≤ 10
CC(C)[C@@H](Oc1cccc2ccccc12)[C@H]1CCNC1 [Example 14-6, (S)-3-[(R)-2-Methyl-1-(naphthalen-1-yloxy)propyl]pyrrolidine] | ≤ 10 | ≤ 10
CC(C)[C@@H](Oc1cccc2ccccc12)[C@@H]1CCNC1 [Example 14-7, (R)-3-[(R)-2-Methyl-1-(naphthalen-1-yloxy)propyl]pyrrolidine] | ≤ 100 | ≤ 10

— patent US7994209B2, “3-phenoxymethylpyrrolidine compounds” (Theravance, Inc., priority 2009, dated 2011)
